Assay results: patent US20170058314A1, “NOVEL METHODOLOGY FOR IDENTIFYING ANTI-PERSISTER ACTIVITY AND ANTIMICROBIAL SUSCEPTIBILITY FOR BORRELIA BURGDORFERI AND OTHER BACTERIA” (priority 2014, published 2017)
Values after ≈ are worked out from the molar mass of the structure shown. Read-outs that look alike come from different tables or passages of the source.

What was measured:
[1] = tested on: E. coli strains (W3110, UTI89, CFT073, KTE181); assay: Rapid SYBR Green/PI antibiotic susceptibility test; assay type: cell-based, Escherichia coli; conditions: for percent killed, sensitive strain W3110: ampicillin 100 μg/mL, others 25 μg/mL; for percent killed, resistant strain KTE181: ampicillin 100, trimethoprim 25, streptomycin 25 μg/mL; for cut-off (averaged proportion of killed cells) for resistant strains / cut-off (averaged proportion of killed cells) for susceptible strains: ampicillin, trimethoprim 5 μg/mL
[2] = tested on: round body form of B. burgdorferi; assay: SYBR Green I/PI assay on amoxicillin-induced round body form; conditions: for viability at 50 µM: Borreliella burgdorferi, 168 h, read-out: Residual viable cells (SYBR Green I/PI assay)
[3] = tested on: stationary phase B. burgdorferi persisters (strain B31); assay: SYBR Green I/PI viability assay (plate reader), FDA-approved drug library screen; conditions: for Ratio of Green/Red fluorescence, Primary screening / Ratio of Green/Red fluorescence, Rescreening (first column) / Ratio of Green/Red fluorescence, Rescreening (second column): 50 μM, 7 days, stationary phase; for viability at 50 µM: Borreliella burgdorferi, 168 h, read-out: Residual viable cells (regression equation, SYBR Green I/PI assay)
[4] = tested on: log phase and stationary phase B. burgdorferi culture; assay: Antibiotic exposure assay, SYBR Green I/PI (drugs alone and combinations); conditions: for viability at 10 µg/mL: Borreliella burgdorferi, 168 h
Protocol: (§1) To qualitatively determine the effect of antibiotics, 10 μL of each compound from the pre-diluted plate or pre-diluted stock was added to stationary phase B. burgdorferi culture in the 96-well plate. The final volume per well was adjusted to 100 μL at a concentration of 10 μg/mL for each antibiotic. Plates were sealed and placed in a 33° C. incubator for 7 days. The SYBR Green I/PI viability assay was used to assess the live and dead cells after antibiotic exposure as described (Feng, Wang, Shi, et al., 2014). Briefly, 10 μL of SYBR Green I (10,000×stock, Invitrogen) was mixed with 30 μL propidium iodide (PI, 20 mM) into 1.0 mL of sterile dH2O. Then, 10 μL of staining mixture was added to each well and mixed thoroughly. The plates were incubated at room temperature in the dark for 15 minutes followed by plate reading at excitation wavelength at 485 nm and the fluorescence intensity at 535 nm (green emission) and 635 nm (red emission) in microplate reader (HTS 7000 plus Bio Assay Reader, PerkinElmer Inc., USA). With least-square fitting analysis, the regression equation and regression curve of the relationship between percentage of live bacteria and green/red fluorescence ratios was obtained. The regression equation was used to calculate the percentage of live cells in each well of the 96-well plate.
To qualitatively determine the effect of antibiotics, 10 μL of each compound (final concentration 50 μM) from the pre-diluted plate or pre-diluted stock was added to round body form or stationary phase B. burgdorferi culture in the 96-well plate. The final volume per well was adjusted to 100 μL. Plates were sealed and placed in a 33° C. incubator for 7 days. The SYBR Green I/PI viability assay was used to assess the live and dead cells after antibiotic exposure as described (Feng, Wang, Shi, et al., 2014). Briefly, 10 μL of SYBR Green I (10,000×stock, Invitrogen) was mixed with 30 μL propidium iodide (PI, 20 mM, Sigma-Aldrich) into 1.0 mL of sterile dH2O. Then, 10 μL staining mixture was added to each well and mixed thoroughly. The plates were incubated at room temperature in the dark for 15 minutes followed by plate reading at excitation wavelength at 485 nm and the fluorescence intensity at 535 nm (green emission) and 635 nm (red emission) in microplate reader (HTS 7000 plus Bio Assay Reader, PerkinElmer Inc., USA). With least-square fitting analysis, the regression equation and regression curve of the relationship between percentage of live and dead bacteria as shown in green/red fluorescence ratios was obtained. The regression equation was used to calculate the percentage of live cells in each well of the 96-well plate.
Round body form and ten day old stationary phase (in brackets) B. burgdorferi culture was treated with 10 μg/mL drugs or their combinations for 7 days. Residual viable B. burgdorferi was calculated according to the regression equation and ratio of Green/Red fluorescence obtained by SYBR Green I/PI assay as described (Feng, Wang, Shi, et al., 2014). Direct microscopy counting was employed to rectify the results of the SYBR Green I/PI assay. […] Abbreviation: Dox, doxcycline; CefP, cefoperazone; DAP, daptomycin; CefM, cefmetazole; Scp, sulfachlorpyridazine; Art, artemisinin; Nft, nitrofurantoin.

[5] = tested on: stationary phase B. burgdorferi persisters (strain B31); assay: epifluorescence microscope counting after SYBR Green I/PI staining, FDA drug screen; conditions: Borreliella burgdorferi, 168 h, read-out: Residual viable cells (epifluorescence microscope counting)
[6] = tested on: round body form of B. burgdorferi; assay: Subculture test of drug-treated round body form
Protocol: For induction of round body form of B. burgdorferi, B. burgdorferi spirochetes (1×10^5 spirochetes/mL) were cultured in BKS-H medium for 6 days without shaking. After the 6-day incubation, amoxicillin at a final concentration of 50 μg/mL was added to the culture for round body form induction. After 72 h induction at 33° C., the round body forms of B. burgdorferi were examined by the microscopy. The round body cells (100 μL) were transferred to 96-well tissue culture microplates for evaluation of the effects of antibiotic treatment.

[7] = tested on: B. burgdorferi (growing, strain B31); assay: MIC determination, standard microdilution method; assay type: cell-based, Borrelia burgdorferi; conditions: for sensitivity of log phase / multiplying B. burgdorferi (words, FIG. 12): MIC test
[8] = tested on: stationary phase B. burgdorferi; assay: Subculture test of drug-treated stationary phase B. burgdorferi; assay type: cell-based, Borrelia burgdorferi
Protocol: Seven-day-old B. burgdorferi culture (1×10^7 spirochetes/mL) (500 μL) was treated with drugs or drug combinations in Eppendorf tubes. After incubation at 33° C. for 7 days without shaking, the cells were collected by centrifugation and rinsed with 1 mL fresh BSK-H medium followed by resuspension in 500 μL fresh BSK-H medium without antibiotics. Then 50 μL of cell suspension was transferred to 1 mL fresh BSK-H medium for subculture at 33° C. for 2 weeks. Cell proliferation was assessed using SYBR Green I/PI assay and bacterial counting chamber (Hausser Scientific Partnership) by microscopy as described above.

[9] = tested on: B. burgdorferi log and stationary phase cultures; assay: epi-fluorescence microscope counting after antibiotic exposure (persister frequency, planktonic forms); assay type: cell-based, Borrelia burgdorferi; conditions: 10-day-old stationary phase culture, 10 μg/mL, 7 days, FIG. 17A
Protocol: Specimens were examined on a Nikon Eclipse E800 microscope equipped with differential interference contrast (DIC) and epi-fluorescence illumination, and recorded with a Spot slider color camera. Cell proliferation assays were performed by direct counting using a bacterial counting chamber (Hausser Scientific Partnership) and DIC microscopy. SYBR Green I/PI assay was performed to assess the viability of B. burgdorferi. The ratio of live (green) and dead (red) B. burgdorferi was calculated by counting these cells using a bacterial counting chamber and epi-fluorescence microscopy. The three representative images of every sample were captured for quantitative analysis. Image Pro-Plus software was applied for measuring the biomass (fluorescence intensity) of different forms (spirochetes, round body, and microcolony) of B. burgdorferi as previously described (Shopov and Williams, 2000).
as §1
Therefore, the frequency of B. burgdorferi persisters in log phase and stationary phase cultures was assessed using the SYBR Green I/PI viability assay after exposure of the cultures to antimicrobials. E. coli culture was used as a control after exposure to antibiotics to validate the SYBR Green I/PI viability assay for persister frequency assessment.

[10] = tested on: B. burgdorferi (growing, strain B31); conditions: actively growing B. burgdorferi; Feng, Wang, Shi, et al., 2014; cited from earlier work
[11] = read-out: Live Cell % (residual viable B. burgdorferi)
[12] = 10 μg/mL, 7 days treatment, then subculture
[13] = 10 μg/mL drugs or combinations, 7 days

Compound	percent killed, sensitive strain W3110 ([1]; 30 minutes) [%]	percent killed, resistant strain KTE181 ([1]; 30 minutes) [%]	cut-off (averaged proportion of killed cells) for resistant strains ([1]; streptomycin 100 μg/mL)	cut-off (averaged proportion of killed cells) for susceptible strains ([1]; streptomycin 100 μg/mL)	viability at 50 µM [2] [%]	Ratio of Green/Red fluorescence, Primary screening [3]	Ratio of Green/Red fluorescence, Rescreening (first column) [3]	Ratio of Green/Red fluorescence, Rescreening (second column) [3]	viability at 50 µM [3] [%]	viability at 10 µg/mL [4, 11] [%]	viability at 50 µM [5] [%]	sensitivity of log phase / multiplying B. burgdorferi (words, FIG. 12) [7]	further results
COc1cc(Cc2cnc(N)nc2N)cc(OC)c1OC [trimethoprim]	47	1	-0.2	−0.5	–	–	–	–	–	–	–	–	percent killed, resistant strain CFT073 ([1]; 30 minutes, trimethoprim 25 μg/mL): 22%
CN[C@H](CC(C)C)C(=O)N[C@H]1C(=O)N[C@@H](CC(N)=O)C(=O)N[C@H]2C(=O)N[C@H]3C(=O)N[C@H](C(=O)N[C@H](C(=O)O)c4cc(O)cc(O)c4-c4cc3ccc4O)[C@H](O)c3ccc(c(Cl)c3)Oc3cc2cc(c3O[C@@H]2O[C@H](CO)[C@@H](O)[C@H](O)[C@H]2O[C@H]2C[C@](C)(N)[C@H](O)[C@H](C)O2)Oc2ccc(cc2Cl)[C@H]1O [Vancomycin]	–	–	–	–	38	6.65	6.58	6.37	38	64	48	–	–
CCN1CCN(C(=O)N[C@@H](C(=O)N[C@@H]2C(=O)N3C(C(=O)O)=C(CSc4nnnn4C)CS[C@H]23)c2ccc(O)cc2)C(=O)C1=O [Cefoperazone]	–	–	–	–	–	6.54	6.32	6.23	34	–	37	very sensitive	Spirochetes number After 10 day subculture [6, 12]: 9 × 10^5; Spirochetes number After 20 day subculture [6, 12]: 4 × 10^6; viability at 10 µg/mL ([6]; Borreliella burgdorferi, 168 h, read-out: Residual viable cells): 33%; Live cell %, round body form [2, 13]: 30%; G/R ratio immediately after treatment ([8]; 10 μg/mL, 7 days): 6.60; G/R ratio after 7 day subculture [8, 12]: 6.13; G/R ratio after 15 day subculture [8, 12]: 6.95; Spirochetes after 7 day subculture (microscope counting) [8, 12]: 1.5 × 10^6; Spirochetes after 15 day subculture (microscope counting) [8, 12]: 5 × 10^6; viability at 10 µg/mL ([8]; Borreliella burgdorferi, 168 h, read-out: Residual viable cells (epifluorescence microscope counting)): 61%; planktonic form cells remaining green (live) [9]: 52%; Live cell %, ten day old stationary phase culture (in brackets) [4, 13]: 64%; viability at 10 µg/mL ([4]; read-out: Live Cell % (residual viable B. burgdorferi), ten-day-old stationary phase culture enriched with micro-colonies, 10 μg/mL each drug, 7 days): 64%
[H]/N=C(/N)N[C@H]1[C@H](O)[C@@H](O)[C@H](O[C@@H]2O[C@@H](C)[C@](O)(C=O)[C@H]2O[C@@H]2O[C@@H](CO)[C@H](O)[C@@H](O)[C@@H]2NC)[C@@H](N/C(N)=N\[H])[C@@H]1O [Streptomycin]	29	0	−0.1	−0.6	–	6.72	6.93	6.76	45	–	–	–	cut-off (averaged proportion of killed cells) for intermediate resistance ([1]; streptomycin 100 μg/mL): −0.5
CC(C)/N=c1\cc2n(-c3ccc(Cl)cc3)c3ccccc3nc-2cc1Nc1ccc(Cl)cc1 [Clofazimine]	–	–	–	–	32	6.56	6.23	6.02	32	73	45	less potent	Ratios of green/red fluorescence, Primary screening ([2]; round body form, 50 μM, 7 days): 6.29; Ratios of green/red fluorescence, Rescreening (first column) ([2]; round body form, 50 μM, 7 days): 6.22; Ratios of green/red fluorescence, Rescreening (second column) ([2]; round body form, 50 μM, 7 days): 6.24; MIC ([7]; Borreliella burgdorferi, growing B. burgdorferi, read-out: MIC): 6.25 µg/mL (≈ 13.2 µM); MIC (previous study) [10]: 6.25 µg/mL (≈ 13.2 µM)
